≈ marks a conversion by molar mass, not a printed value.
How the values were obtained:
[1] = 1-Octanol/water partition coefficient, log P of compound at 2 mg after 24 hrs by spectrophotometry based shake flask method; assay type: physicochemical
[2] = Antioxidant activity assessed as DPPH free radical scavenging activity at 5 ug/ml after 30 mins by spectrophotometric analysis; assay type: functional
[3] = Antioxidant activity assessed as DPPH free radical scavenging activity at 25 ug/ml after 30 mins by spectrophotometric analysis; assay type: functional
[4] = Antioxidant activity assessed as DPPH free radical scavenging activity at 50 ug/ml after 30 mins by spectrophotometric analysis; assay type: functional
[5] = Antioxidant activity assessed as DPPH free radical scavenging activity at 100 ug/ml after 30 mins by spectrophotometric analysis; assay type: functional
[6] = Antioxidant activity assessed as DPPH free radical scavenging activity at 150 ug/ml after 30 mins by spectrophotometric analysis; assay type: functional
[7] = Antioxidant activity assessed as DPPH free radical scavenging activity at 200 ug/ml after 30 mins by spectrophotometric analysis; assay type: functional
[8] = Antioxidant activity assessed as DPPH free radical scavenging activity after 30 mins by spectrophotometric analysis; assay type: functional
Rattus norvegicus [9] = species on record: Rattus norvegicus; experiment: Reduction in intraocular pressure in Wistar rat model of dexamethasone-induced elevated IOP assessed as change in intraocular pressure at 1 % w/v after 0.5 hrs by tonometry (reference value: 0%); assay type: functional; parameters: scale not given: the % may be the effect or the level left
Rattus norvegicus [10] = species on record: Rattus norvegicus; experiment: Reduction in intraocular pressure in Wistar rat model of dexamethasone-induced elevated IOP assessed as change in intraocular pressure at 1 % w/v after 1 hr by tonometry (reference value: 0%); assay type: functional; parameters: scale not given: the % may be the effect or the level left
Rattus norvegicus [11] = species on record: Rattus norvegicus; experiment: Reduction in intraocular pressure in Wistar rat model of dexamethasone-induced elevated IOP assessed as change in intraocular pressure at 1 % w/v after 1.5 hrs by tonometry (reference value: 0%); assay type: functional; parameters: scale not given: the % may be the effect or the level left
Rattus norvegicus [12] = species on record: Rattus norvegicus; experiment: Reduction in intraocular pressure in Wistar rat model of dexamethasone-induced elevated IOP assessed as change in intraocular pressure at 1 % w/v after 2 hrs by tonometry (reference value: 0%); assay type: functional; parameters: scale not given: the % may be the effect or the level left
Rattus norvegicus [13] = species on record: Rattus norvegicus; experiment: Reduction in intraocular pressure in Wistar rat model of dexamethasone-induced elevated IOP assessed as change in intraocular pressure at 1 % w/v after 2.5 hrs by tonometry (reference value: 0%); assay type: functional; parameters: scale not given: the % may be the effect or the level left
Rattus norvegicus [14] = species on record: Rattus norvegicus; experiment: Reduction in intraocular pressure in Wistar rat model of dexamethasone-induced elevated IOP assessed as change in intraocular pressure at 1 % w/v after 3 hrs by tonometry (reference value: 0%); assay type: functional; parameters: scale not given: the % may be the effect or the level left
Rattus norvegicus [15] = species on record: Rattus norvegicus; experiment: Reduction in intraocular pressure in Wistar rat model of dexamethasone-induced elevated IOP assessed as change in intraocular pressure at 1 % w/v after 4 hrs by tonometry (reference value: 0%); assay type: functional; parameters: scale not given: the % may be the effect or the level left
Rattus norvegicus [16] = species on record: Rattus norvegicus; experiment: Reduction in intraocular pressure in Wistar rat model of dexamethasone-induced elevated IOP assessed as change in intraocular pressure at 1 % w/v after 5 hrs by tonometry (reference value: 0%); assay type: functional; parameters: scale not given: the % may be the effect or the level left
Rattus norvegicus [17] = species on record: Rattus norvegicus; experiment: Reduction in intraocular pressure in Wistar rat model of dexamethasone-induced elevated IOP assessed as change in intraocular pressure at 1 % w/v after 6 hrs by tonometry (reference value: 0%); assay type: functional; parameters: scale not given: the % may be the effect or the level left
Rattus norvegicus [18] = species on record: Rattus norvegicus; experiment: Reduction in intraocular pressure in Wistar rat model of dexamethasone-induced elevated IOP assessed as change in intraocular pressure in contralateral eye at 1 % w/v after 0.5 hrs by tonometry (reference value: 0%); assay type: ADME, organism-based; parameters: scale not given: the % may be the effect or the level left; details: in vivo, topical_or_ocular
Rattus norvegicus [19] = species on record: Rattus norvegicus; experiment: Reduction in intraocular pressure in Wistar rat model of dexamethasone-induced elevated IOP assessed as change in intraocular pressure in contralateral eye at 1 % w/v after 1 hr by tonometry (reference value: 0%); assay type: ADME, organism-based; parameters: scale not given: the % may be the effect or the level left; details: in vivo, topical_or_ocular
Rattus norvegicus [20] = species on record: Rattus norvegicus; experiment: Reduction in intraocular pressure in Wistar rat model of dexamethasone-induced elevated IOP assessed as change in intraocular pressure in contralateral eye at 1 % w/v after 1.5 hrs by tonometry (reference value: 0%); assay type: ADME, organism-based; parameters: scale not given: the % may be the effect or the level left; details: in vivo
Rattus norvegicus [21] = species on record: Rattus norvegicus; experiment: Reduction in intraocular pressure in Wistar rat model of dexamethasone-induced elevated IOP assessed as change in intraocular pressure in contralateral eye at 1 % w/v after 2 hrs by tonometry (reference value: 0%); assay type: ADME, organism-based; parameters: scale not given: the % may be the effect or the level left; details: in vivo
Rattus norvegicus [22] = species on record: Rattus norvegicus; experiment: Reduction in intraocular pressure in Wistar rat model of dexamethasone-induced elevated IOP assessed as change in intraocular pressure in contralateral eye at 1 % w/v after 2.5 hrs by tonometry (reference value: 0%); assay type: ADME, organism-based; parameters: scale not given: the % may be the effect or the level left; details: in vivo
Rattus norvegicus [23] = species on record: Rattus norvegicus; experiment: Reduction in intraocular pressure in Wistar rat model of dexamethasone-induced elevated IOP assessed as change in intraocular pressure in contralateral eye at 1 % w/v after 3 hrs by tonometry (reference value: 0%); assay type: ADME, organism-based; parameters: scale not given: the % may be the effect or the level left; details: in vivo
Rattus norvegicus [24] = species on record: Rattus norvegicus; experiment: Reduction in intraocular pressure in Wistar rat model of dexamethasone-induced elevated IOP assessed as change in intraocular pressure in contralateral eye at 1 % w/v after 4 hrs by tonometry (reference value: 0%); assay type: ADME, organism-based; parameters: scale not given: the % may be the effect or the level left; details: in vivo
Rattus norvegicus [25] = species on record: Rattus norvegicus; experiment: Reduction in intraocular pressure in Wistar rat model of dexamethasone-induced elevated IOP assessed as change in intraocular pressure in contralateral eye at 1 % w/v after 5 hrs by tonometry (reference value: 0%); assay type: ADME, organism-based; parameters: scale not given: the % may be the effect or the level left; details: in vivo
Rattus norvegicus [26] = species on record: Rattus norvegicus; experiment: Reduction in intraocular pressure in Wistar rat model of dexamethasone-induced elevated IOP assessed as change in intraocular pressure in contralateral eye at 1 % w/v after 6 hrs by tonometry (reference value: 0%); assay type: ADME, organism-based; parameters: scale not given: the % may be the effect or the level left; details: in vivo
Rattus norvegicus [27] = species on record: Rattus norvegicus; experiment: Reduction in intraocular pressure in Wistar rat model of dexamethasone-induced elevated IOP assessed as onset time for reduction in intraocular pressure at 1 % w/v by tonometry; assay type: functional
Rattus norvegicus [28] = species on record: Rattus norvegicus; experiment: Reduction in intraocular pressure in Wistar rat model of dexamethasone-induced elevated IOP assessed as peak effect time for reduction in intraocular pressure at 1 % w/v by tonometry; assay type: functional, organism-based
Rattus norvegicus [29] = species on record: Rattus norvegicus; experiment: Reduction in intraocular pressure in Wistar rat model of dexamethasone-induced elevated IOP assessed as reduction in intraocular pressure at peak effect time at 1 % w/v by tonometry; assay type: functional; parameters: scale not given: the % may be the effect or the level left

Compound	logP at 24 h [1]	Activity [2] [%]	Activity [3] [%]	Activity [4] [%]	Activity [5] [%]	Activity [6] [%]	Activity [7] [%]	IC50 [8] [µg/mL]	Activity (Rattus norvegicus [9]) [%]	Activity (Rattus norvegicus [10]) [%]	Activity (Rattus norvegicus [11]) [%]	Activity (Rattus norvegicus [12]) [%]	Activity (Rattus norvegicus [13]) [%]	Activity (Rattus norvegicus [14]) [%]	Activity (Rattus norvegicus [15]) [%]	Activity (Rattus norvegicus [16]) [%]	Activity (Rattus norvegicus [17]) [%]	Activity (Rattus norvegicus [18]) [%]	Activity (Rattus norvegicus [19]) [%]	Activity (Rattus norvegicus [20]) [%]	further results
COc1ccc(N2CCN(CC(=O)Nc3nc4ccccc4[nH]3)CC2)cc1	2.65	7.24	13.3	25.8	38.9	53.2	63.7	144.19 (≈ 395 µM)	3.8	5.67	6.15	9.42	15.32	10.08	7	3.37	1.33	1.2	2.07	2.83	Activity (Rattus norvegicus [21]): 3.57%; Activity (Rattus norvegicus [22]): 3.97%; Activity (Rattus norvegicus [23]): 2%; Activity (Rattus norvegicus [24]): 0.43%; Activity (Rattus norvegicus [25]): 0%; Activity (Rattus norvegicus [26]): 0%; Time (Rattus norvegicus [27]): 0.5 h; Tmax (Rattus norvegicus [28]): 2.5 h; Activity (Rattus norvegicus [29]): 46.92%
O=C(CN1CCN(Cc2ccccc2)CC1)Nc1nc2ccccc2[nH]1	1.97	6.28	22.1	33.3	47	52.6	63.9	134.71 (≈ 386 µM)	3.4	5.58	6.85	8.65	11.45	10.5	5.66	2.9	0.9	1.67	2.47	3.13	Activity (Rattus norvegicus [21]): 3.2%; Activity (Rattus norvegicus [22]): 2.72%; Activity (Rattus norvegicus [23]): 2.32%; Activity (Rattus norvegicus [24]): 1.26%; Activity (Rattus norvegicus [25]): 0.83%; Activity (Rattus norvegicus [26]): 0.47%; Time (Rattus norvegicus [27]): 0.5 h; Tmax (Rattus norvegicus [28]): 2.5 h; Activity (Rattus norvegicus [29]): 35.52%
CCN1CCN(CC(=O)Nc2nc3ccccc3[nH]2)CC1	1.09	13.3	26.6	35.7	45.7	57.5	65.8	124.91 (≈ 435 µM)	4.12	6.23	9.55	10.6	12.25	8.93	5.65	0.53	0.45	1.4	2.37	3.73	Activity (Rattus norvegicus [21]): 5.22%; Activity (Rattus norvegicus [22]): 4.8%; Activity (Rattus norvegicus [23]): 2.62%; Activity (Rattus norvegicus [24]): 0%; Activity (Rattus norvegicus [25]): 0%; Activity (Rattus norvegicus [26]): 0%; Time (Rattus norvegicus [27]): 0.5 h; Tmax (Rattus norvegicus [28]): 2.5 h; Activity (Rattus norvegicus [29]): 45.02%
